This note sets out measurements from patent US20110144140A1, “PYRIDINYL-PYRIMIDINE DERIVATIVES USEFUL AS POTASSIUM CHANNEL MODULATING AGENTS” (priority 2006, published 2011).

As a reminder, the melting point is the temperature, or range, at which the solid turns liquid.

In one data set the target is T1, hSK3 channels (Homo sapiens, UniProt Q9UGI6).
T1 construct: expressed in transfected cells; host or cells: HEK293
Briefly: whole-cell patch-clamp recording of ionic current through SK channels, subtype 3, in HEK293 cells. The format is cell-based. Conditions: HEK293 cells expressing hSK3, baseline current at −75 mV, free Ca2+ 0.3-0.4 μM. How it is done: The ionic current through small-conductance Ca^2+-activated K^+ channels (SK channels, subtype 3) is recorded using the whole-cell configuration of the patch-clamp technique.
HEK293 tissue culture cells expressing hSK3 channels were grown in DMEM (Dulbecco's Modified Eagle Medium) supplemented with 10% FCS (foetal calf serum) at 37° C. in 5% CO2. At 60-80% confluency, cells were harvested by trypsin treatment and seeded on cover slips.
Experiments are carried out on one of several patch-clamp set-ups. Cells plated on coverslips are placed in a 15 μl perfusion chamber (flowrate ˜1 ml/min) mounted on an IMT-2 microscope. The microscopes are placed on vibration-free tables in grounded Faraday cages. All experiments are performed at room temperature (20-22° C.). […] Data are stored directly on the hard-disk and analysed by IGOR software (Wavemetrics, Lake Oswega, Oreg., USA).
The whole-cell configuration of the patch-clamp technique is applied. […] Cell capacitance is electronically compensated and the resistance between the pipette and the cell interior (the series resistance, Rs) is measured and compensated for. […]
The intracellular (pipette) solution contained: 154 mM KCl, 10 mM HEPES, 10 mM EGTA. Concentrations of CaCl2 and MgCl2 needed to obtain the desired free concentrations of Ca^2+ (0.3-0.4 μM, Mg^2+ always 1 mM) were calculated by EqCal software (Cambridge, UK) and added. […]
(In patch-clamp work, channel activity is measured electrically.)

Where a name gives a salt, the structure may show the parent alone.

T1 sequence (Q9UGI6 whole entry): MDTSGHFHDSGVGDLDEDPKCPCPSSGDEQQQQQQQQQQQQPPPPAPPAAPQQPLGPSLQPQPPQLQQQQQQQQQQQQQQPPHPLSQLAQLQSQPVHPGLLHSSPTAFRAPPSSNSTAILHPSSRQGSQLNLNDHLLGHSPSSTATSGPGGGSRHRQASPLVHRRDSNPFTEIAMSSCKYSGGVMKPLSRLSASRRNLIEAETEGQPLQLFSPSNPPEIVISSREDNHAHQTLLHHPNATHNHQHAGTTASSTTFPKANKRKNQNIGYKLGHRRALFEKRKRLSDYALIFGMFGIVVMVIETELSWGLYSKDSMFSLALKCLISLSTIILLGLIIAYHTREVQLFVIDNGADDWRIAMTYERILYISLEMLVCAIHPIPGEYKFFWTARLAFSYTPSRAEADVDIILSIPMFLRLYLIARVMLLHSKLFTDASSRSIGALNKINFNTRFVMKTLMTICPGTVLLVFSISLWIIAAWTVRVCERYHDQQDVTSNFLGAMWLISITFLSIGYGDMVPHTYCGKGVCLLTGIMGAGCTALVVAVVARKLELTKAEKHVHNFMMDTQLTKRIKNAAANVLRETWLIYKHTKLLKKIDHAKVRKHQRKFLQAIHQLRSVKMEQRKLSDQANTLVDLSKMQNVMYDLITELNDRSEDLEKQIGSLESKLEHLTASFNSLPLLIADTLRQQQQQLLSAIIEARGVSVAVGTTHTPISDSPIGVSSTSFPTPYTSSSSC

`Cc1cccc(-c2nc(C)cc(NC3CCCCC3)n2)n1` showed a melting point of 59.6 to 65 °C.
Consider `Cc1cc(Nc2ccc(Cl)cc2)nc(-c2cccc(Cl)n2)n1` (as salt: hydrochloride) [Compound 4A, (4-Chloro-phenyl)-[6-methyl-2-(6-chloro-pyridin-2-yl)-pyrimidin-4-yl]-amine], for which the melting point came to 239 °C.
As for `Cc1cc(Nc2ccc(Cl)cc2)nc(-c2cccc(Cl)n2)n1` [Compound 4A, (4-Chloro-phenyl)-[6-methyl-2-(6-chloro-pyridin-2-yl)-pyrimidin-4-yl]-amine], the “SC100 (Stimulating Concentration required for increasing the baseline current by 100%)” value at hSK3 channels came out at 0.3 µM.
